Assay results reported in patent US6933308B2 (Bristol-Myers Squibb Company, priority 2002, dated 2005).

System: KCNQ channels
Assay: Thallium flux assay for KCNQ channel openers
Type: cell-based
Details: HEK-293 cells stably transfected with a KCNQ family member; for Min conc. response: minimal active concentration: lowest concentration giving signal >= 4 SD of negative controls; for EC50: thallium flux, 10 point concentration series
Description: Thallium Flux Assay for KCNQ Channel Openers.
The thallium assay is a modification of that published by Weaver and is referenced in its entirety (Weaver, C. D. WO 02/31508, 2002).
Approximately 20,000 cells/well of an HEK-293 cell line stably transfected with one of the members of the KCNQ family were plated into clear-bottom, black-walled, poly-D-lysine coated, 384 well assay plates in 20 μl/well of low chloride plating medium. Low chloride plating medium was composed of the following: sodium gluconate, 109 mM; potassium gluconate, 5.4 mM; hemi-calcium gluconate, 3.6 mM; magnesium sulfate, 0.8 mM; sodium bicarbonate, 26.2 mM; sodium phosphate monobasic, 1.2 mM; glutamine, 2 mM; glucose, 5 mM; 4-(2-hydroxyethyl)-1-piperazineethanesulfonic acid (HEPES) (pH 7.3) 10 mM, MEM vitamin solution (10× concentration of vitamins, Gibco/LifeTechnologies 11120-052) and MEM amino acid solution (1× concentration of amino acids, Gibco/LifeTechnologies 11130-051).
Following overnight incubation in a 5% CO2 incubator at 37° C., the cells in the plates were loaded with 20 μl/well of a dye loading solution containing the commercially available thallium-sensitive fluorescent dye BTC-AM, the acetomethoxy ester of BTC (see U.S. Pat. No. 5,501,980) (2 μM) and pluronic acid F-127 (Molecular Probes P 6867) (0.02% w/v) in chloride free assay buffer. Chloride free assay buffer was composed of the following: sodium gluconate, 140 mM; potassium gluconate, 2.5 mM; hemi-calcium gluconate, 6 mM; hemi-magnesium gluconate, 2 mM; glucose, 5 mM; HEPES (pH 7.3), 10 mM.
Following incubation in the dye loading solution for from 45-90 min at room temperature, the dye loading solution was removed by aspiration and replaced with 40 μl/well of chloride free assay buffer.
Prior to addition to cell plates, test compound and standard compounds were dissolved in DMSO to 3 mM concentration. Compounds were then diluted from the 3 mM stock to 100-fold over the final assay concentration in DMSO. Finally, compounds in DMSO were diluted from 100-fold over the final assay concentration to 5-fold over the final assay concentration in chloride free assay buffer.
Ten μl/well of compounds at 5-fold over the final assay concentration were then added to the cell plates. This represents a 1:5 dilution, yielding the final test concentration. The wells used for test compounds were A1-P20. Wells A21-P22 contained a standard opener and a maximally efficacious concentration (positive control). Wells A23-P24 contained chloride free assay buffer containing 1% DMSO (negative control).
Following addition of test compounds, the plates were loaded onto the Molecular Devices FLIPR. The 488 nm line of the argon laser was used to excite the BTC and the emission filter was a 540(+/−30) nm. Images were collected at 1 Hz. Ten seconds of baseline were collected and then the FLIPR was used to add 13 μl/well of a stimulus buffer composed of 7.5 mM Tl2SO4 in chloride free assay buffer. Images were collected for an additional 60 seconds.
For data analysis, the amplitude of the average of the negative controls was subtracted from all wells. The amplitudes of the test compounds were then compared to the value of four standard deviations of the negative control wells. The lowest concentration of a test compound sufficient to generate a signal amplitude greater than or equal to four standard deviations from the amplitude of the negative controls was defined as the minimal active concentration.
For generating EC50 values, compounds were serially diluted in 1:3 volume increments to produce a 10 point concentration series. EC50 values were calculated by fitting the resulting amplitudes to a single-site logistic equation. EC50 was defined as the concentration of test compound required to yield 50% of the maximal response. Maximal response (Maximal opening) was the largest signal amplitude divided by the negative control amplitude generated by any concentration of a test compound. […]

## CC(NC(=O)c1sc(C(O)CN2CCN(C)CC2)nc1C(F)(F)F)c1cccc(C(F)(F)F)c1 (stereo not shown) [Example 53, 2-[1-hydroxy-2-(4-methyl-1-piperazinyl)ethyl]-4-(trifluoromethyl)-N-[1-[3-(trifluoromethyl)phenyl]ethyl]-5-thiazolecarboxamide]
  Min conc. response: 30 µM

## CC(NC(=O)c1sc(CCN2CCCCC2)nc1C(F)(F)F)c1cccc(C(F)(F)F)c1 (stereo not shown) [Example 24, 2-[2-(1-piperidinyl)ethyl]-N-[1-[3-(3-trifluoromethyl)phenyl]ethyl]-4-(trifluoromethyl)-5-thiazolecarboxamide]
  Min conc. response: 0.3 µM
  EC50: 1 to 20 µM

## CC(NC(=O)c1sc(C(O)CN2CCCCC2)nc1C(F)(F)F)c1cccc(OC(F)(F)F)c1 (stereo not shown) [Example 41, 2-[1-hydroxy-2-(1-piperidinyl)ethyl]-N-[1-[3-(trifluoromethoxy)phenyl]ethyl]-4-(trifluoromethyl)-5-thiazolecarboxamide]
  Min conc. response: 30 µM
  EC50: 1 to 20 µM

## CC(NC(=O)c1sc(CCN(C)Cc2ccco2)nc1C(F)(F)F)c1cccc(OC(F)(F)F)c1 (stereo not shown) [Example 14, 2-[2-[(2-furanylmethyl)methylamino]ethyl]-4-(trifluoromethyl)-N-[1-[3-(trifluoromethoxy)phenyl]ethyl]-5-thiazolecarboxamide]
  Min conc. response: 3 µM
  EC50: < 0.05 µM

## COCCN(CCOC)CCc1nc(C(F)(F)F)c(C(=O)NC(C)c2cccc(OC(F)(F)F)c2)s1 (stereo not shown) [Example 38]
  Min conc. response: 3 µM
  EC50: 1 to 20 µM

## C[C@H](NC(=O)c1sc(CCN2CCCCC2)nc1C(F)(F)F)c1cccc(-c2cccnc2)c1 [Example 32, 2-[2-(1-piperidinyl)ethyl]-N-[1-[3-(3-pyridinyl)phenyl]ethyl]-4-(trifluoromethyl)-5-thiazolecarboxamide]
  Min conc. response: 3 µM
  EC50: 1 to 20 µM

## CC(NC(=O)c1sc(CCNC2CCCC2)nc1C(F)(F)F)c1cccc(OC(F)(F)F)c1 (stereo not shown) [Example 36, 2-[2-(cyclopentylamino)ethyl]-N-[1-[3-(trifluoromethoxy)phenyl]ethyl]-4-(trifluoromethyl)-5-thiazolecarboxamide]
  Min conc. response: 30 µM
  EC50: 1 to 20 µM

## CC(NC(=O)c1sc(CCN2CCC(O)CC2)nc1C(F)(F)F)c1cccc(C(F)(F)F)c1 (stereo not shown) [Example 27, 2-[2-(4-hydroxy-1-piperidinyl)ethyl]-4-(trifluoromethyl)-N-[1-[3-(trifluoromethyl)phenyl]ethyl]-5-thiazolecarboxamide]
  Min conc. response: 30 µM
  EC50: 1 to 20 µM

## CC(NC(=O)c1sc(CCN2CCSCC2)nc1C(F)(F)F)c1cccc(N(C)C)c1 (stereo not shown) [Example 46, N-[1-[3-(dimethylamino)phenyl]ethyl]-2-[2-(4-thiomorpholinyl)ethyl]-4-(trifluoromethyl)-5-thiazolecarboxamide]
  Min conc. response: 3 µM

## CC(NC(=O)c1sc(C(O)CN2CCCC2)nc1C(F)(F)F)c1cccc(OC(F)(F)F)c1 (stereo not shown) [Example 57, 2-[1-hydroxy-2-(1-pyrrolidinyl)ethyl]-N-[1-[3-(trifluoromethoxy)phenyl]ethyl]-4-(trifluoromethyl)-5-thiazolecarboxamide]
  Min conc. response: 3 µM

## CC(NC(=O)c1sc(C(O)CN2CCCC2)nc1C(F)(F)F)c1cccc(N(C)C)c1 (stereo not shown) [Example 58, N-[1-[3-(dimethylamino)phenyl]ethyl]-2-[1-hydroxy-2-(1-pyrrolidinyl)ethyl]-4-(trifluoromethyl)-5-thiazolecarboxamide]
  Min conc. response: 0.3 µM

## CCCN(CCc1nc(C(F)(F)F)c(C(=O)NC(C)c2cccc(C(F)(F)F)c2)s1)CC1CC1 (stereo not shown) [Example 30, 2-[2-[(cyclopropylmethyl)propylamino]ethyl]-N-[1-[3-(trifluoromethyl)phenyl]ethyl]-4-(trifluoromethyl)-5-thiazolecarboxamide]
  Min conc. response: 3 µM
  EC50: < 0.05 µM

## CCCN(CC1CC1)CC(O)c1nc(C(F)(F)F)c(C(=O)NC(C)c2cccc(C(F)(F)F)c2)s1 (stereo not shown) [Example 60, 2-[2-[(cyclopropylmethyl)propylamino]-1-hydroxyethyl]-4-(trifluoromethyl)-N-[1-[3-(trifluoromethyl)phenyl]ethyl]-5-thiazolecarboxamide]
  Min conc. response: 3 µM

## C[C@H](NC(=O)c1sc(CCN2CCOCC2)nc1C(F)(F)F)c1cccc(N2CCOCC2)c1 [Example 45, 2-[2-(4-morpholinyl)ethyl]-N-[(1S)-1-[3-(4-morpholinyl)phenyl]ethyl]-4-(trifluoromethyl)-5-thiazolecarboxamide]
  Min conc. response: 3 µM

## CCCN(CC1CC1)CC(O)c1nc(C(F)(F)F)c(C(=O)NC(C)c2cccc(OC(F)(F)F)c2)s1 (stereo not shown) [Example 44]
  Min conc. response: 3 µM
  EC50: 0.05 to 1 µM

## C[C@H](NC(=O)c1sc(CCN2CCN(C)CC2)nc1C(F)(F)F)c1cccc(N2CCOCC2)c1 [Example 48, 2-[2-(4-methyl-1-piperazinyl)ethyl]-N-[(1S)-1-[3-(4-morpholinyl)phenyl]ethyl]-4-(trifluoromethyl)-5-thiazolecarboxamide]
  Min conc. response: 3 µM

## CC(NC(=O)c1sc(C(O)CN(C)Cc2ccco2)nc1C(F)(F)F)c1cccc(C(F)(F)F)c1 (stereo not shown) [Example 43, 2-[1-hydroxy-[2-(2-furanylmethyl)methylamino]ethyl]-N-[1-[3-(trifluoromethyl)phenyl]ethyl]-4-(trifluoromethyl)-5-thiazolecarboxamide]
  Min conc. response: 3 µM
  EC50: 0.05 to 1 µM

## CCCN(CCc1nc(C(F)(F)F)c(C(=O)NC(C)c2cccc(N(C)C)c2)s1)CC1CC1 (stereo not shown) [Example 29, 2-[2-[(cyclopropylmethyl)propylamino]ethyl]-N-[1-[3-(dimethylamino)phenyl]ethyl]-4-(trifluoromethyl)-5-thiazolecarboxamide]
  Min conc. response: 3 µM
  EC50: 1 to 20 µM

## C[C@H](NC(=O)c1sc(C(O)CN2CCCC2)nc1C(F)(F)F)c1cccc(N2CCOCC2)c1 (stereo partly drawn) [Example 59, 2-[1-hydroxy-2-(1-pyrrolidinyl)ethyl]-N-[(1S)-1-[3-(4-morpholinyl)phenyl]ethyl]-4-(trifluoromethyl)-5-thiazolecarboxamide]
  Min conc. response: 30 µM

## CC(NC(=O)c1sc(CCN2CCC(O)CC2)nc1C(F)(F)F)c1cccc(OC(F)(F)F)c1 (stereo not shown) [Example 26, 2-[2-(4-hydroxy-1-piperidinyl)ethyl]-4-(trifluoromethyl)-N-[1-[3-(trifluoromethoxy)phenyl]ethyl]-5-thiazolecarboxamide]
  Min conc. response: 10 µM
  EC50: 1 to 20 µM

## CCC(CC)NCCc1nc(C(F)(F)F)c(C(=O)NC(C)c2cccc(C(F)(F)F)c2)s1 (stereo not shown) [Example 34, 2-[2-(3-pentylamino)ethyl]-N-[1-[3-(trifluoromethyl)phenyl]ethyl]-4-(trifluoromethyl)-5-thiazolecarboxamide]
  Min conc. response: 3 µM
  EC50: 1 to 20 µM

## CC(NC(=O)c1sc(CCN(C)CCN(C)C)nc1C(F)(F)F)c1cccc(N(C)C)c1 (stereo not shown) [Example 47, 2-[2-[[2-(dimethylamino)ethyl]methylamino]ethyl]-N-[1-[3-(dimethylamino)phenyl]ethyl]-4-(trifluoromethyl)-5-thiazolecarboxamide]
  Min conc. response: 0.3 µM

## CC(NC(=O)c1sc(C(O)CN2CCCC2)nc1C(F)(F)F)c1cccc(C(F)(F)F)c1 (stereo not shown) [Example 42, 2-[1-hydroxy-2-(1-pyrrolidinyl)ethyl]-N-[1-[3-(trifluoromethyl)phenyl]ethyl]-4-(trifluoromethyl)-5-thiazolecarboxamide]
  Min conc. response: 3 µM
  EC50: 0.05 to 1 µM
